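A five-concentration, 48-hour dose response in 96-well plates underlies each endpoint, interpolated linearly between surrounding concentrations. GI50 marks 50% less growth. At the TGI there is no net growth.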
What was measured:
Test in all cases: NCI tumour cell line growth inhibition, 48 h
UO-31 renal = tested on: UO-31 renal
ACHN renal = tested on: ACHN renal
PC-3 prostate = tested on: PC-3 prostate
HS 578T breast = tested on: HS 578T breast
TK-10 renal = tested on: TK-10 renal
SK-MEL-2 melanoma = tested on: SK-MEL-2 melanoma
HOP-92 NSCLC = tested on: HOP-92 NSCLC
SNB-75 CNS = tested on: SNB-75 CNS
SN12C renal = tested on: SN12C renal
M14 melanoma = tested on: M14 melanoma
NCI-H226 lung = tested on: NCI-H226 lung
SR leukemia = tested on: SR leukemia
HOP-62 NSCLC = tested on: HOP-62 NSCLC
SNB-19 CNS = tested on: SNB-19 CNS
SK-OV-3 ovarian = tested on: SK-OV-3 ovarian
HCC-2998 colon = tested on: HCC-2998 colon
KM12 colon = tested on: KM12 colon
MALME-3M melanoma = tested on: MALME-3M melanoma
A498 renal = tested on: A498 renal
OVCAR-3 ovarian = tested on: OVCAR-3 ovarian
NCI-H23 lung = tested on: NCI-H23 lung
CAKI-1 renal = tested on: CAKI-1 renal
T-47D breast = tested on: T-47D breast
SK-MEL-28 melanoma = tested on: SK-MEL-28 melanoma
OVCAR-4 ovarian = tested on: OVCAR-4 ovarian
LOX IMVI melanoma = tested on: LOX IMVI melanoma
OVCAR-8 ovarian = tested on: OVCAR-8 ovarian
U251 CNS = tested on: U251 CNS
UACC-62 melanoma = tested on: UACC-62 melanoma
DU-145 prostate = tested on: DU-145 prostate
UACC-257 melanoma = tested on: UACC-257 melanoma
SF-295 CNS = tested on: SF-295 CNS
NCI-H522 lung = tested on: NCI-H522 lung
SW-620 colon = tested on: SW-620 colon
NCI/ADR-RES ovarian = tested on: NCI/ADR-RES ovarian
RXF 393 renal = tested on: RXF 393 renal
MDA-MB-231 breast = tested on: MDA-MB-231 breast
SK-MEL-5 melanoma = tested on: SK-MEL-5 melanoma
A549 NSCLC = tested on: A549 NSCLC
HT29 colon = tested on: HT29 colon
EKVX NSCLC = tested on: EKVX NSCLC
MDA-MB-435 = tested on: MDA-MB-435
COLO 205 colon = tested on: COLO 205 colon
BT-549 breast = tested on: BT-549 breast
RPMI-8226 leukemia = tested on: RPMI-8226 leukemia
HCT-15 colon = tested on: HCT-15 colon
SF-268 CNS = tested on: SF-268 CNS
SF-539 CNS = tested on: SF-539 CNS
HCT-116 colon = tested on: HCT-116 colon
MCF7 breast = tested on: MCF7 breast
IGROV1 ovarian = tested on: IGROV1 ovarian
786-0 renal = tested on: 786-0 renal
OVCAR-5 ovarian = tested on: OVCAR-5 ovarian
HL-60(TB) leukemia = tested on: HL-60(TB) leukemia
MOLT-4 leukemia = tested on: MOLT-4 leukemia
CCRF-CEM leukemia = tested on: CCRF-CEM leukemia
K-562 leukemia = tested on: K-562 leukemia
NCI-H460 lung = tested on: NCI-H460 lung

## CN(C)CCN1C(=O)c2ccc3c4c(ccc(c24)C1=O)C(=O)N(CCN=C=S)C3=O
UO-31 renal
  GI50: 28.1 nM
  TGI: 157 nM
ACHN renal
  GI50: 25.6 nM
  TGI: 123 nM
PC-3 prostate
  GI50: 51.3 nM
  TGI: 667 nM
HS 578T breast
  GI50: 127 nM
  TGI: 0.68 µM
TK-10 renal
  GI50: 21.8 nM
  TGI: 109 nM
SK-MEL-2 melanoma
  GI50: 56.3 nM
  TGI: 225 nM
HOP-92 NSCLC
  GI50: 26.2 nM
  TGI: 174 nM
SNB-75 CNS
  GI50: 58 nM
  TGI: 198 nM
SN12C renal
  GI50: 36.4 nM
  TGI: 177 nM
M14 melanoma
  GI50: 73.5 nM
  TGI: 216 nM
NCI-H226 lung
  GI50: 100 nM
  TGI: 0.325 µM
SR leukemia
  GI50: < 17.2 nM
HOP-62 NSCLC
  GI50: 50.3 nM
  TGI: 194 nM
SNB-19 CNS
  GI50: 95.4 nM
  TGI: 596 nM
SK-OV-3 ovarian
  GI50: 164 nM
  TGI: 668 nM
HCC-2998 colon
  GI50: 172 nM
  TGI: 381 nM
KM12 colon
  GI50: 41.5 nM
  TGI: 0.173 µM
MALME-3M melanoma
  GI50: 74.7 nM
  TGI: 224 nM
A498 renal
  GI50: 52.9 nM
  TGI: 207 nM
OVCAR-3 ovarian
  GI50: 26.7 nM
  TGI: 89.7 nM
NCI-H23 lung
  GI50: 162 nM
  TGI: 0.417 µM
CAKI-1 renal
  GI50: 0.0448 µM
  TGI: 0.785 µM
T-47D breast
  GI50: 29.9 nM
  TGI: 165 nM
SK-MEL-28 melanoma
  GI50: 83.9 nM
  TGI: 209 nM
OVCAR-4 ovarian
  GI50: 130 nM
  TGI: 365 nM
LOX IMVI melanoma
  GI50: 35.2 nM
  TGI: 127 nM
OVCAR-8 ovarian
  GI50: 28.8 nM
  TGI: 173 nM
U251 CNS
  GI50: 34.7 nM
  TGI: 153 nM
UACC-62 melanoma
  GI50: 71 nM
  TGI: 211 nM
DU-145 prostate
  GI50: 41.5 nM
  TGI: 0.149 µM
UACC-257 melanoma
  GI50: 84.9 nM
  TGI: 216 nM
SF-295 CNS
  GI50: 122 nM
  TGI: 0.513 µM
NCI-H522 lung
  GI50: 31.1 nM
  TGI: 145 nM
SW-620 colon
  GI50: 26.9 nM
  TGI: 155 nM
NCI/ADR-RES ovarian
  GI50: 52.4 nM
  TGI: 0.495 µM
RXF 393 renal
  GI50: 41.6 nM
  TGI: 177 nM
MDA-MB-231 breast
  GI50: 94.2 nM
  TGI: 352 nM
SK-MEL-5 melanoma
  GI50: 113 nM
  TGI: 235 nM
A549 NSCLC
  GI50: 73.9 nM
  TGI: 252 nM
HT29 colon
  GI50: 29.7 nM
  TGI: 115 nM
EKVX NSCLC
  GI50: 396 nM
  TGI: 1.5 µM
MDA-MB-435
  GI50: 58.5 nM
  TGI: 249 nM
COLO 205 colon
  GI50: 25.4 nM
  TGI: 92.2 nM
BT-549 breast
  GI50: 129 nM
  TGI: 297 nM
RPMI-8226 leukemia
  GI50: 31.8 nM
  TGI: 0.197 µM
HCT-15 colon
  GI50: 57.9 nM
  TGI: 0.221 µM
SF-268 CNS
  GI50: 46.6 nM
  TGI: 0.29 µM
SF-539 CNS
  GI50: 48.2 nM
  TGI: 212 nM
HCT-116 colon
  GI50: 27 nM
  TGI: 134 nM
MCF7 breast
  GI50: 25.7 nM
  TGI: 0.129 µM
IGROV1 ovarian
  GI50: 51 nM
  TGI: 236 nM
786-0 renal
  GI50: 43.6 nM
  TGI: 416 nM
OVCAR-5 ovarian
  GI50: 153 nM
  TGI: 0.815 µM

## Cc1cc(C(C)(C)CC(C)(C)C)ccc1OCCOCC[N+](C)(C)Cc1ccccc1
UO-31 renal
  GI50: 2250 nM
  TGI: 6650 nM
ACHN renal
  GI50: 3190 nM
  TGI: 11300 nM
HS 578T breast
  GI50: 1860 nM
  TGI: 5.16 µM
HOP-92 NSCLC
  GI50: 1030 nM
  TGI: 2460 nM
HOP-62 NSCLC
  GI50: 1440 nM
  TGI: 2840 nM
SK-OV-3 ovarian
  GI50: 1440 nM
  TGI: 2780 nM
CAKI-1 renal
  GI50: 10.4 µM
  TGI: 39 µM
T-47D breast
  GI50: 388 nM
  TGI: 1810 nM
UACC-62 melanoma
  GI50: 967 nM
  TGI: 2210 nM
DU-145 prostate
  GI50: 1660 nM
  TGI: 3.13 µM
NCI/ADR-RES ovarian
  GI50: 15300 nM
  TGI: 51 µM
MDA-MB-231 breast
  GI50: 1330 nM
  TGI: 2750 nM
EKVX NSCLC
  GI50: 1550 nM
  TGI: 4.07 µM
COLO 205 colon
  GI50: 1250 nM
  TGI: 2640 nM
HL-60(TB) leukemia
  GI50: 436 nM
  TGI: 1.62 µM
HCT-15 colon
  GI50: 9800 nM
  TGI: 44 µM
OVCAR-5 ovarian
  GI50: 1710 nM
  TGI: 3.45 µM

## COc1ccc(/C=C/C(=O)C(CC2CCC2)C(=O)/C=C/c2ccc(OC)c(OC)c2)cc1OC
UO-31 renal
  GI50: 1560 nM
  TGI: 2900 nM
ACHN renal
  GI50: 1480 nM
  TGI: 2950 nM
PC-3 prostate
  GI50: 2850 nM
  TGI: > 100000 nM
HS 578T breast
  GI50: 3190 nM
  TGI: > 100 µM
TK-10 renal
  GI50: 2590 nM
  TGI: 4880 nM
SK-MEL-2 melanoma
  GI50: 2110 nM
  TGI: 4700 nM
HOP-92 NSCLC
  GI50: 2640 nM
  TGI: 7900 nM
SNB-75 CNS
  GI50: 1320 nM
  TGI: 2740 nM
SN12C renal
  GI50: 1930 nM
  TGI: 4550 nM
NCI-H226 lung
  GI50: 2680 nM
  TGI: 6.74 µM
SR leukemia
  GI50: 1040 nM
  TGI: > 100 µM
SK-OV-3 ovarian
  GI50: 2690 nM
  TGI: 6690 nM
HCC-2998 colon
  GI50: 1850 nM
  TGI: 3410 nM
KM12 colon
  GI50: 2220 nM
  TGI: 6.66 µM
MALME-3M melanoma
  GI50: 2090 nM
  TGI: 5040 nM
A498 renal
  GI50: 1820 nM
  TGI: 3330 nM
MOLT-4 leukemia
  GI50: 2820 nM
  TGI: 8.95 µM
OVCAR-3 ovarian
  GI50: 1040 nM
  TGI: 3040 nM
NCI-H23 lung
  GI50: 2190 nM
  TGI: 5.87 µM
T-47D breast
  GI50: 1390 nM
  TGI: 4440 nM
SK-MEL-28 melanoma
  GI50: 2160 nM
  TGI: 5390 nM
OVCAR-4 ovarian
  GI50: 2340 nM
  TGI: > 100000 nM
LOX IMVI melanoma
  GI50: 1250 nM
  TGI: 2520 nM
CCRF-CEM leukemia
  GI50: 2050 nM
  TGI: > 100 µM
K-562 leukemia
  GI50: 2150 nM
  TGI: > 100 µM
U251 CNS
  GI50: 1380 nM
  TGI: 2790 nM
DU-145 prostate
  GI50: 1710 nM
  TGI: 3.56 µM
UACC-257 melanoma
  GI50: 1860 nM
  TGI: 3410 nM
SF-295 CNS
  GI50: 2500 nM
  TGI: 7.22 µM
NCI-H460 lung
  GI50: 2010 nM
  TGI: 4.14 µM
SW-620 colon
  GI50: 1550 nM
  TGI: 3570 nM
NCI/ADR-RES ovarian
  GI50: 2580 nM
  TGI: > 100 µM
RXF 393 renal
  GI50: 1850 nM
  TGI: 3470 nM
MDA-MB-231 breast
  GI50: 3770 nM
  TGI: > 100000 nM
SK-MEL-5 melanoma
  GI50: 1770 nM
  TGI: 3250 nM
HT29 colon
  GI50: 1780 nM
  TGI: 4340 nM
EKVX NSCLC
  GI50: 2730 nM
  TGI: 9.9 µM
MDA-MB-435
  GI50: 1490 nM
  TGI: 3150 nM
COLO 205 colon
  GI50: 2410 nM
  TGI: 5000 nM
BT-549 breast
  GI50: 1540 nM
  TGI: 4040 nM
RPMI-8226 leukemia
  GI50: 1730 nM
  TGI: 6.4 µM
HL-60(TB) leukemia
  GI50: 1690 nM
  TGI: 5.94 µM
HCT-15 colon
  GI50: 1280 nM
  TGI: 3.9 µM
SF-268 CNS
  GI50: 2580 nM
  TGI: 9.51 µM
SF-539 CNS
  GI50: 1710 nM
  TGI: 3570 nM
HCT-116 colon
  GI50: 965 nM
  TGI: 2420 nM
MCF7 breast
  GI50: 600 nM
  TGI: 40.5 µM
IGROV1 ovarian
  GI50: 2000 nM
  TGI: 5270 nM
786-0 renal
  GI50: 1830 nM
  TGI: 3450 nM
OVCAR-5 ovarian
  GI50: 2550 nM
  TGI: 5.6 µM

Reference: PubChem BioAssay (NCI)
